The values that follow come from patent US20230025510A1, “BIARYL ETHER-TYPE QUINAZOLINE DERIVATIVES” (DAIICHI SANKYO COMPANY, LIMITED, priority 2018, published 2023).

Holding throughout (format): cell-based
The test system of experiment [1] is Ba/F3-Mock cells. The experiment can be described thus: Cell proliferation suppression test (CellTiter-Glo, GI50), Ba/F3-Mock. The note with it: Mus musculus, BaF3, 72 h, 5 ng/mL IL-3, 3 days, N=4. Here is the method: (§1) Cell proliferation suppression test Ba/F3-Mock, Ba/F3-EGFR WT, Ba/F3-EGFR ins. ASV, and Ba/F3-EGFR ins. SVD cell lines were cultured based on a culture medium of 10% FBS-containing RPMI 1640 supplemented with 1.5 ug/mL puromycin, and 5 ng/mL IL-3 and 100 ng/mL of EGF were further added to the culture solution for Ba/F3-Mock and Ba/F3-EGFR WT, respectively. The cells were cultured in a CO2 incubator set at 37° C., 5% CO2. Specimens prepared by dilution were seeded into 384-well tissue culture plates with Echo555 (Labcyte Inc.), and the cells were seeded thereto at 400 cells/well for Ba/F3-Mock, Ba/F3-EGFR WT, and Ba/F3-EGFR ins. SVD and at 200 cells/well for Ba/F3-EGFR ins. ASV (day 0), then they were cultured for an additional 3 days. On the day of the compound addition (day 0) and 3 days after the compound addition (day 3), ATP quantity was measured with CellTiter-Glo (registered trademark) 2.0 (Promega Corporation.), and used as an indicator of cell quantity (N=4). In the test, puromycin-free culture medium was used. Concentrations at which cell proliferation from day 0 to day 3 was inhibited by 50% (GIso) were calculated with EXCEL.

In experiment [2] the test system is Ba/F3-EGFR WT cells. As to the kind of experiment: Cell proliferation suppression test (CellTiter-Glo, GI50), Ba/F3-EGFR WT. Conditions: Mus musculus, 72 h, 100 ng/mL EGF, 3 days, N=4. Here is the method: as §1
The subject of experiment [3] is Ba/F3-EGFR ins. ASV cells. The experiment can be described thus: Cell proliferation suppression test (CellTiter-Glo, GI50), Ba/F3-EGFR ins. ASV. Conditions: Mus musculus, 72 h, 3 days, N=4. Here is the method: as §1
Experiment [4] relates to Ba/F3-EGFR ins. SVD cells. As to the kind of experiment: Cell proliferation suppression test (CellTiter-Glo, GI50), Ba/F3-EGFR ins. SVD. The note with it: Mus musculus, 72 h, 3 days, N=4. Here is the method: as §1

Turning to `C=CC(=O)N1CCC(Oc2cc3c(Nc4ccc(Oc5cccc(-c6nnc(C)o6)c5)cc4F)ncnc3cc2OC)CC1` [Example 17, 1-{4-[(4-{2-Fluoro-4-[3-(5-methyl-1,3,4-oxadiazol-2-yl)phenoxy]anilino}-7-methoxyquinazolin-6-yl)oxy]piperidin-1-yl}prop-2-en-1-one], the GI50 in experiment [1] came to 8220 nM; in experiment [2], 186 nM; in experiment [3], 10.3 nM; in experiment [4] it was 8 nM.
The corresponding values for `C=CC(=O)N1CCC(Oc2cc3c(Nc4ccc(Oc5cccc(-c6nnc(C)o6)c5)cc4F)ncnc3cc2OCC)CC1` [Example 18, 1-{4-[(7-Ethoxy-4-{2-fluoro-4-[3-(5-methyl-1,3,4-oxadiazol-2-yl)phenoxy]anilino}quinazolin-6-yl)oxy]piperidin-1-yl}prop-2-en-1-one] are 4660 nM, 158 nM, 12.2 nM and 12.2 nM.
The like results for `C=CC(=O)N1CCC(Oc2cc3c(Nc4ccc(Oc5cccc(-c6nnc(C)o6)c5)cc4F)ncnc3cc2OCF)CC1` [Example 19, 1-(4-{[7-(Fluoromethoxy)-4-{2-fluoro-4-[3-(5-methyl-1,3,4-oxadiazol-2-yl)phenoxy]anilino}quinazolin-6-yl]oxy}piperidin-1-yl)prop-2-en-1-one] were, in that order, 4920 nM, 386 nM, 23.5 nM and 20.2 nM.
For `[2H]C([2H])([2H])Oc1cc2ncnc(Nc3ccc(Oc4ccn(C(=O)NC(C)(C)C)n4)cc3F)c2cc1OC1CCN(C(=O)C=C)CC1` [Example 20, N-tert-Butyl-3-{3-fluoro-4-[(7-[(^2H3)methyloxy]-6-{[1-(prop-2-enoyl)piperidin-4-yl]oxy}quinazolin-4-yl)amino]phenoxy}-1H-pyrazole-1-carboxamide], the GI50 in experiment [1] was above 10000 nM; in experiment [2] it was 171 nM; in experiment [3], 18.6 nM; in experiment [4], 9 nM.
The like results for `[2H]C([2H])([2H])Oc1cc2ncnc(Nc3ccc(Oc4ccn(C(=O)NC(C([2H])([2H])[2H])(C([2H])([2H])[2H])C([2H])([2H])[2H])n4)cc3F)c2cc1OC1CCN(C(=O)C=C)CC1` [Example 21, 3-{3-Fluoro-4-[(7-[(^2H3)methyloxy]-6-{[1-(prop-2-enoyl)piperidin-4-yl]oxy}quinazolin-4-yl)amino]phenoxy}-N-[2-(^2H3)methyl(^2H6)propan-2-yl]-1H-pyrazole-1-carboxamide] were, in that order, 7990 nM, 129 nM, 12.1 nM and 7.3 nM.
The corresponding values for `C=CC(=O)N1CCC(Oc2cc3c(Nc4ccc(Oc5ccn(C(=O)NC6(C(F)(F)F)CC6)n5)cc4F)ncnc3cc2OC)CC1` [Example 22, 3-{3-Fluoro-4-[(7-methoxy-6-{[1-(prop-2-enoyl)piperidin-4-yl]oxy}quinazolin-4-yl)amino]phenoxy}-N-[1-(trifluoromethyl)cyclopropyl]-1H-pyrazole-1-carboxamide] are 8620 nM, 102 nM, 14.5 nM and 12.8 nM.
The like results for `C=CC(=O)N1CCC(Oc2cc3c(Nc4ccc(Oc5ccn(C(=O)NC(C)(CF)CF)n5)cc4F)ncnc3cc2OC)CC1` [Example 23, N-(1,3-Difluoro-2-methylpropan-2-yl)-3-{3-fluoro-4-[(7-methoxy-6-{[1-(prop-2-enoyl)piperidin-4-yl]oxy}quinazolin-4-yl)amino]phenoxy}-1H-pyrazole-1-carboxamide] were, in that order, 5530 nM, 110 nM, 12.4 nM and 10.9 nM.
As for `C=CC(=O)N1CCC(Oc2cc3c(Nc4ccc(Oc5ccn(C(=O)N[C@H](C)C(F)(F)F)n5)cc4F)ncnc3cc2OC)CC1` [Example 24, 3-{3-Fluoro-4-[(7-methoxy-6-{[1-(prop-2-enoyl)piperidin-4-yl]oxy}quinazolin-4-yl)amino]phenoxy}-N-[(2R)-1,1,1-trifluoropropan-2-yl]-1H-pyrazole-1-carboxamide], the GI50 in experiment [1] is 6470 nM; in experiment [2], 42.4 nM; in experiment [3], 11.8 nM; in experiment [4] it was 9.9 nM.
For `[2H]C([2H])([2H])C(NC(=O)n1ccc(Oc2ccc(Nc3ncnc4cc(OC)c(OC5CCN(C(=O)C=C)CC5)cc34)c(F)c2)n1)(C([2H])([2H])[2H])C([2H])([2H])[2H]` [Example 25, 3-{3-Fluoro-4-[(7-methoxy-6-{[1-(prop-2-enoyl)piperidin-4-yl]oxy}quinazolin-4-yl)amino]phenoxy}-N-[2-(^2H3)methyl(^2H6)propan-2-yl]-1H-pyrazole-1-carboxamide], the GI50 in experiment [1] was above 10000 nM; in experiment [2], 180 nM; in experiment [3] it was 18.8 nM; in experiment [4], 12.4 nM.
For `COc1cc2ncnc(Nc3ccc(Oc4ccn(C(=O)N5CCCC5)n4)cc3F)c2cc1NC(=O)/C=C/CN(C)C` [Example 26, (2E)-4-(Dimethylamino)-N-[4-(2-fluoro-4-{[1-(pyrrolidin-1-ylcarbonyl)-1H-pyrazo1-3-yl]oxy}anilino)-7-methoxyquinazolin-6-yl]but-2-enamide], the GI50 amounted to 1060 nM in experiment [1], 191 nM in experiment [2], 17.5 nM in experiment [3] and 53.7 nM in experiment [4].
The like results for `C=CC(=O)N1CCC(Oc2cc3c(Nc4ccc(Oc5ccn(-c6cnc(C)c(F)c6)n5)cc4F)ncnc3cc2OC)CC1` [Example 27, 1-(4-{[4-(2-Fluoro-4-{[1-(5-fluoro-6-methylpyridin-3-yl)-1H-pyrazol-3-yl]oxy}anilino)-7-methoxyquinazolin-6-yl]oxy}piperidin-1-yl)prop-2-en-1-one] were, in that order, 8690 nM, 249 nM, 11.6 nM and 11.1 nM.
The corresponding values for `C=CC(=O)N1CCC(Oc2cc3c(Nc4ccc(Oc5ccn(-c6ccc(C)nc6)n5)cc4F)ncnc3cc2OC)CC1` [Example 28, 1-(4-{[4-(2-Fluoro-4-{[1-(6-methylpyridin-3-yl)-1H-pyrazol-3-yl]oxy}anilino)-7-methoxyquinazolin-6-yl]oxy}piperidin-1-yl)prop-2-en-1-one] are 8370 nM, 290 nM, 12.4 nM and 12.1 nM.
Consider `C=CC(=O)N1CCC(Oc2cc3c(Nc4ccc(Oc5ccn(-c6ccnc(Cl)c6)n5)cc4F)ncnc3cc2OC)CC1` [Example 29, 1-(4-{[4-(4-{[1-(2-Chloropyridin-4-yl)-1H-pyrazol-3-yl]oxy}-2-fluoroanilino)-7-methoxyquinazolin-6-yl]oxy}piperidin-1-yl)prop-2-en-1-one], for which the GI50 in experiment [1] was above 10000 nM; in experiment [2] it was 157 nM; in experiment [3] it was 11.3 nM; in experiment [4], 7.9 nM.
As for `C=CC(=O)N1CCC(Oc2cc3c(Nc4ccc(Oc5ccn(-c6ccnc(F)c6)n5)cc4F)ncnc3cc2OC)CC1` [Example 30, 1-(4-{[4-(2-Fluoro-4-{[1-(2-fluoropyridin-4-yl)-1H-pyrazol-3-yl]oxy}anilino)-7-methoxyquinazolin-6-yl]oxy}piperidin-1-yl)prop-2-en-1-one], the GI50 is above 10000 nM in experiment [1], 121 nM in experiment [2], 13.5 nM in experiment [3] and 14 nM in experiment [4].
Consider `C=CC(=O)N1CCC(Oc2cc3c(Nc4ccc(Oc5ccn(-c6ccc(C7CC7)nc6)n5)cc4F)ncnc3cc2OC)CC1` [Example 31], for which the GI50 in experiment [1] was above 10000 nM; in experiment [2], 241 nM; in experiment [3] it was 15.5 nM; in experiment [4], 12.8 nM.
The like results for `C=CC(=O)N1CCC(Oc2cc3c(Nc4ccc(Oc5ccn(-c6ccc(F)nc6)n5)cc4F)ncnc3cc2OC)CC1` [Example 32] were, in that order, above 10000 nM, 162 nM, 11.9 nM and 12.7 nM.
The corresponding values for `C=CC(=O)N1CCC(Oc2cc3c(Nc4ccc(Oc5nc(-c6nnc(C(C)C)o6)cs5)cc4F)ncnc3cc2OC)CC1` [Example 33, 1-[4-({4-[2-Fluoro-4-({4-[5-(propan-2-yl)-1,3,4-oxadiazol-2-yl]-1,3-thiazol-2-yl}oxy)anilino]-7-methoxyquinazolin-6-yl}oxy)piperidin-1-yl]prop-2-en-1-one] are above 10000 nM, 163 nM, 11.3 nM and 5.8 nM.
The corresponding values for `C=CC(=O)N1CCC(Oc2cc3c(Nc4ccc(Oc5nc(-c6ccc(CC)nc6)cs5)cc4F)ncnc3cc2OC)CC1` [Example 34, 1-(4-{[4-(4-{[4-(6-Ethylpyridin-3-yl)-1,3-thiazol-2-yl]oxy}-2-fluoroanilino)-7-methoxyquinazolin-6-yl]oxy}piperidin-1-yl)prop-2-en-1-one] are above 10000 nM, 276 nM, 20.5 nM and 13.7 nM.
